Data taken from US11292799B2, “Substituted azetidine dihydrothienopyrimidines and their use as phosphodiesterase inhibitors” (UNION therapeutics A/S, priority 2017, dated 2022).

How the values were obtained:
[1] = biological target: human PDE4D catalytic domain (Homo sapiens (Human), UniProt Q08499); experiment: PDE4 assay (TR-FRET, cAMP cleavage); type: biochemical; conditions: read-out: PDE4 IC50 range
Description: The human PDE4D catalytic domain (UniProt no. Q08499 [[…]]) was incubated with a mixture of non-labelled cAMP (cyclic adenosine monophosphate) and fluorescein amidite (FAM) conjugated cAMP and titrated test or reference compound. Following brief incubation the enzymatic reaction was stopped by addition of binding buffer containing nanoparticles with immobilized trivalent metal ions capable of binding 1) AMP phospho groups and 2) terbium (Tb) donor fluorophores. Subsequent excitation of the Tb donor triggers time-resolved FRET to adjacent FAM acceptor molecules resulting in light emission. In the presence of a PDE4 inhibitor, AMP generation was reduced resulting in a lower fluorescence signal. The cAMP phosphodiester is not bound by the detection system.
The results were calculated as the molar concentrations resulting in 50% inhibition of the substrate cleavage compared to controls samples, and are expressed as IC50 (nM).

[2] = test system: TNF-α release, human peripheral blood mononuclear cells (PBMC); experiment: TNF-α release in LPS-stimulated PBMC; type: cell-based; conditions: lipopolysaccharide stimulation for 18 hours, read-out: TNF-α IC50 range
Description: Human peripheral blood mononuclear cells (PBMC) were isolated from buffy coats. The blood is mixed with saline at a ratio of 1:1, and the PBMC were isolated using Lymphoprep Tubes™ (Nycomed, Norway). The PBMC were suspended in RPMI1640 with 0.5% human serum albumin, pen/strep and 2 mM L-glutamine at a concentration of 5×105 c/ml. The cells were pre-incubated for 30 minutes with the test compounds in 96 well tissue culture plates and stimulated for 18 hours with lipopolysaccharide […] (Sigma). TNF-α concentration in the supernatants was measured using homogeneous time-resolved fluorescence resonance (TR-FRET). The assay is quantified by measuring fluorescence at 665 nm (proportional to TNF-α concentration) and 620 nm (control).
Results were expressed as IC50 values calculated from inhibition curves using as positive controls the secretion in LPS stimulated wells and as negative controls the secretion in unstimulated cells.

human PDE4D catalytic domain, sequence (Q08499 380-740 limits assumed): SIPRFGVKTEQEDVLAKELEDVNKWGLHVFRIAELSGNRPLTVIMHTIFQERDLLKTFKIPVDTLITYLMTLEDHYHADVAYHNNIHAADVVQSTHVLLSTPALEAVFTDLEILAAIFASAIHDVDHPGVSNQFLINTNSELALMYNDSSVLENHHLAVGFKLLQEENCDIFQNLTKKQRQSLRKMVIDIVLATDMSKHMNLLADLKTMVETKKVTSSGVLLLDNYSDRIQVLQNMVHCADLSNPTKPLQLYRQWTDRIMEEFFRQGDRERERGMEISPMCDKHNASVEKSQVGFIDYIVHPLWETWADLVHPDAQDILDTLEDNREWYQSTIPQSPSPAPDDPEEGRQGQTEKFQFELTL

SMILES | IC50 [1] [µM] | IC50 [2] [µM]
[O-][S+]1CCc2nc(N3CC(c4ccccc4)C3)nc(NC3CCOCC3)c21 (stereo in doubt) [Example 1, (R)-2-(3-Phenylazetidin-1-yl)-4-((tetrahydro-2H-pyran-4-yl)amino)-6,7-dihydrothieno[3,2-d]pyrimidine 5-oxide] | < 0.01 | < 0.01
[O-][S+]1CCc2nc(N3CC(Oc4ccccc4)C3)nc(NC3CCOCC3)c21 (stereo in doubt) [Example 2, (R)-2-(3-Phenoxyazetidin-1-yl)-4-((tetrahydro-2H-pyran-4-yl)amino)-6,7-dihydrothieno[3,2-d]pyrimidine 5-oxide] | < 0.01 | < 0.01
[O-][S+]1CCc2nc(N3CC(Oc4ccc(F)cc4)C3)nc(NC3CCOCC3)c21 (stereo in doubt) [Example 3, (R)-2-(3-(4-Fluorophenoxy)azetidin-1-yl)-4-((tetrahydro-2H-pyran-4-yl)amino)-6,7-dihydrothieno[3,2-d]pyrimidine 5-oxide] | < 0.01 | < 0.01
[O-][S+]1CCc2nc(N3CC(c4ccc(F)cc4)C3)nc(NC34CC(C3)C4)c21 (stereo in doubt) [Example 9, (R)-4-(Bicyclo[1.1.1]pentan-1-ylamino)-2-(3-(4-fluorophenyl)azetidin-1-yl)-6,7-dihydrothieno[3,2-d]pyrimidine 5-oxide] | < 0.01 | < 0.01
[O-][S+]1CCc2nc(N3CC(Oc4ccc(F)cc4)C3)nc(NC34CC(C3)C4)c21 (stereo in doubt) [Example 10, (R)-4-(Bicyclo[1.1.1]pentan-1-ylamino)-2-(3-(4-fluorophenoxy)azetidin-1-yl)-6,7-dihydrothieno[3,2-d]pyrimidine 5-oxide] | < 0.01 | < 0.01
[O-][S+]1CCc2nc(N3CC(c4ccccc4)C3)nc(NC34CC(C3)C4)c21 (stereo in doubt) [Example 11, (R)-4-(Bicyclo[1.1.1]pentan-1-ylamino)-2-(3-phenylazetidin-1-yl)-6,7-dihydrothieno[3,2-d]pyrimidine 5-oxide] | < 0.01 | < 0.01
[O-][S+]1CCc2nc(N3CC(c4ccccn4)C3)nc(NC34CC(C3)C4)c21 (stereo in doubt) [Example 12, (R)-4-(Bicyclo[1.1.1]pentan-1-ylamino)-2-(3-(pyridin-2-yl)azetidin-1-yl)-6,7-dihydrothieno[3,2-d]pyrimidine 5-oxide] | 0.01 to 0.05 | 0.01 to 0.05
[O-][S+]1CCc2nc(N3CC(c4cccc(F)c4)C3)nc(NC34CC(C3)C4)c21 (stereo in doubt) [Example 13, (R)-4-(Bicyclo[1.1.1]pentan-1-ylamino)-2-(3-(3-fluorophenyl)azetidin-1-yl)-6,7-dihydrothieno[3,2-d]pyrimidine 5-oxide] | < 0.01 | < 0.01
[O-][S+]1CCc2nc(N3CC(Oc4cccnc4)C3)nc(NC34CC(C3)C4)c21 (stereo in doubt) [Example 14, (R)-4-(Bicyclo[1.1.1]pentan-1-ylamino)-2-(3-(pyridin-3-yloxy)azetidin-1-yl)-6,7-dihydrothieno[3,2-d]pyrimidine 5-oxide] | < 0.01 | 0.01 to 0.05
O=S1(=O)CCC(Nc2nc(N3CC(c4ccccc4)C3)nc3c2[S+]([O-])CC3)CC1 (stereo in doubt) [Example 17, (5R)—N-(1,1-Dioxothian-4-yl)-5-oxido-2-(3-phenylazetidin-1-yl)-6,7-dihydrothieno[3,2-d]pyrimidin-4-yl-amine] |  | < 0.01
O=S1(=O)CC(Nc2nc(N3CC(c4ccccc4)C3)nc3c2[S@+]([O-])CC3)C1 [Example 4, (R)-3-((5-Oxido-2-(3-phenylazetidin-1-yl)-6,7-dihydrothieno[3,2-d]pyrimidin-4-yl)amino)thietane 1,1-dioxide] |  | 0.01 to 0.05
COC(=O)N1CC[C@H](Nc2nc(N3CC(c4ccccc4)C3)nc3c2[S@+]([O-])CC3)C1 [Example 5, Methyl (3S)-3-(((5R)-5-oxido-2-(3-phenylazetidin-1-yl)-6,7-dihydrothieno[3,2-d]pyrimidin-4-yl)amino)pyrrolidine-1-carboxylate] | 0.01 to 0.05 | 0.01 to 0.05
COC(=O)N1CC[C@@H](Nc2nc(N3CC(c4ccccc4)C3)nc3c2[S@+]([O-])CC3)C1 [Example 6, Methyl (3R)-3-(((5R)-5-Oxido-2-(3-phenylazetidin-1-yl)-6,7-dihydrothieno[3,2-d]pyrimidin-4-yl)amino)pyrrolidine-1-carboxylate] | < 0.01 | < 0.01
COC(=O)N1CCC[C@@H](Nc2nc(N3CC(Oc4ccc(F)cc4)C3)nc3c2[S@+]([O-])CC3)C1 [Example 7, Methyl (3R)-3-(((5R)-2-(3-(4-Fluorophenoxy)azetidin-1-yl)-5-oxido-6,7-dihydrothieno[3,2-d]pyrimidin-4-yl)amino)piperidine-1-carboxylate] | < 0.01 | < 0.01
COC(=O)N1CCC[C@H](Nc2nc(N3CC(Oc4ccc(F)cc4)C3)nc3c2[S@+]([O-])CC3)C1 [Example 8, Methyl (3S)-3-(((5R)-2-(3-(4-Fluorophenoxy)azetidin-1-yl)-5-oxido-6,7-dihydrothieno[3,2-d]pyrimidin-4-yl)amino)piperidine-1-carboxylate] | < 0.01 | < 0.01
CC1(Nc2nc(N3CC(c4ccccn4)C3)nc3c2[S@+]([O-])CC3)CCC1 [Example 15, (R)-4-((1-Methylcyclobutyl)amino)-2-(3-(pyridin-2-yl)azetidin-1-yl)-6,7-dihydrothieno[3,2-d]pyrimidine 5-oxide] | < 0.01 | < 0.01
CC1(Nc2nc(N3CC(c4cccnc4)C3)nc3c2[S@+]([O-])CC3)CCC1 [Example 16, (R)-4-((1-Methylcyclobutyl)amino)-2-(3-(pyridin-3-yl)azetidin-1-yl)-6,7-dihydrothieno[3,2-d]pyrimidine 5-oxide] | 0.01 to 0.05 | 0.01 to 0.05
